Experimental data taken from ChEMBL document CHEMBL3885861, “Open TG-GATES”.

Species: Rattus norvegicus
Assay: Open TG-GATES - Regimen: Daily Repeat
Type: toxicity, organism-based, Sprague-Dawley
Design: regimen Daily Repeat, gender Male, age 6 weeks
Conditions: in vivo, po, route gavage; for APTT / Bas / Eos / Fbg / Hb / Ht / Lym / MCH / MCHC / MCV / Mono / Neu / PT / Plat / RBC / Ret / WBC: tissue Blood; for LIVER: tissue Liver; for A/G / ALP / ALT / AST / BUN / CRE / Ca / Cl / DBIL / GLC / IP / K / LDH / Na / PL / RALB / TBIL / TC / TG / TP / gamma-GTP: tissue Plasma
[1] = 0 mg/kg, 72 h, dose level Control, time 3 day
[2] = 0 mg/kg, […], dose level Control, time 7 day
[3] = 0 mg/kg, […], dose level Control, time 14 day
[4] = 0 mg/kg, […], dose level Control, time 28 day
[5] = 5 mg/kg, 72 h, dose level Low, time 3 day
[6] = 5 mg/kg, […], dose level Low, time 7 day
[7] = 5 mg/kg, […], dose level Low, time 14 day
[8] = 5 mg/kg, […], dose level Low, time 28 day

## C=C(C)[C@H]1Cc2c(ccc3c2O[C@@H]2COc4cc(OC)c(OC)cc4[C@@H]2C3=O)O1 [ROTENONE]
[1]
  TERMINAL_BW: 213.4 g
  APTT: 16 s
  Bas: 0%
  Eos: 1%
  Fbg: 211.8 mg/dL
  Hb: 13.2 g/dL
  Ht: 40.7%
  Lym: 77.8%
  MCH: 20.8 pg
  MCHC: 32.4%
  MCV: 64.1 fL
  Mono: 7.8%
  Neu: 14%
  PT: 11.8 s
  Plat: 118 x10_4/uL
  RBC: 635 x10_4/ul
  Ret: 6.1%
  WBC: 92.8 x10_2/uL
  LIVER: 10 g
  A/G: 2.3
  ALP: 1677.6 IU/L
  ALT: 37.8 IU/L
  AST: 67.4 IU/L
  BUN: 18 mg/dL
  CRE: 0.4 mg/dL
  Ca: 11.3 mg/dL
  Cl: 104.2 meq/L
  DBIL: 0.014 mg/dL
  GLC: 187.2 mg/dL
  IP: 7.1 mg/dL
  K: 4.4 meq/L
  LDH: 96.6 IU/L
  Na: 140.6 meq/L
  PL: 141.8 mg/dL
  RALB: 3.8 g/dL
  TBIL: 0.042 mg/dL
  TC: 77.6 mg/dL
  TG: 105 mg/dL
  TP: 5.5 g/dL
  gamma-GTP: 0.4 IU/L
[2]
  TERMINAL_BW: 254 g
  APTT: 15.9 s
  Bas: 0%
  Eos: 1%
  Fbg: 239.4 mg/dL
  Hb: 13.2 g/dL
  Ht: 40.2%
  Lym: 80%
  MCH: 21.1 pg
  MCHC: 32.8%
  MCV: 64.3 fL
  Mono: 6%
  Neu: 13.2%
  PT: 11.6 s
  Plat: 122.4 x10_4/uL
  RBC: 626.2 x10_4/ul
  Ret: 5.5%
  WBC: 113.8 x10_2/uL
  LIVER: 12.8 g
  A/G: 2.1
  ALP: 1286.8 IU/L
  ALT: 35.2 IU/L
  AST: 60.6 IU/L
  BUN: 19 mg/dL
  CRE: 0.4 mg/dL
  Ca: 11.5 mg/dL
  Cl: 104.6 meq/L
  DBIL: 0.014 mg/dL
  GLC: 195.4 mg/dL
  IP: 7.7 mg/dL
  K: 4.5 meq/L
  LDH: 71.8 IU/L
  Na: 140.4 meq/L
  PL: 157.2 mg/dL
  RALB: 3.9 g/dL
  TBIL: 0.034 mg/dL
  TC: 81.2 mg/dL
  TG: 132.2 mg/dL
  TP: 5.8 g/dL
  gamma-GTP: 1 IU/L
[3]
  TERMINAL_BW: 305.5 g
  APTT: 14.9 s
  Bas: 0%
  Eos: 1%
  Fbg: 241.8 mg/dL
  Hb: 13.9 g/dL
  Ht: 41.9%
  Lym: 73.6%
  MCH: 20.5 pg
  MCHC: 33.1%
  MCV: 61.8 fL
  Mono: 4.6%
  Neu: 21%
  PT: 11.3 s
  Plat: 125.6 x10_4/uL
  RBC: 678.4 x10_4/ul
  Ret: 3.8%
  WBC: 106.4 x10_2/uL
  LIVER: 14.2 g
  A/G: 2.1
  ALP: 1512 IU/L
  ALT: 36.4 IU/L
  AST: 67.2 IU/L
  BUN: 18.4 mg/dL
  CRE: 0.4 mg/dL
  Ca: 11.5 mg/dL
  Cl: 104.8 meq/L
  DBIL: 0.01 mg/dL
  GLC: 186 mg/dL
  IP: 6.9 mg/dL
  K: 4.5 meq/L
  LDH: 111.6 IU/L
  Na: 139.6 meq/L
  PL: 156 mg/dL
  RALB: 4 g/dL
  TBIL: 0.03 mg/dL
  TC: 80 mg/dL
  TG: 131.8 mg/dL
  TP: 5.9 g/dL
  gamma-GTP: 1 IU/L
[4]
  TERMINAL_BW: 378.4 g
  APTT: 18 s
  Bas: 0%
  Eos: 1%
  Fbg: 217.6 mg/dL
  Hb: 14.9 g/dL
  Ht: 45%
  Lym: 72%
  MCH: 19.7 pg
  MCHC: 33.1%
  MCV: 59.3 fL
  Mono: 7.2%
  Neu: 19.8%
  PT: 12.5 s
  Plat: 115 x10_4/uL
  RBC: 758.8 x10_4/ul
  Ret: 2%
  WBC: 107.2 x10_2/uL
  LIVER: 15.3 g
  A/G: 2
  ALP: 1248 IU/L
  ALT: 32.2 IU/L
  AST: 58.6 IU/L
  BUN: 18.2 mg/dL
  CRE: 0.4 mg/dL
  Ca: 10.9 mg/dL
  Cl: 106.8 meq/L
  DBIL: 0.01 mg/dL
  GLC: 182.2 mg/dL
  IP: 5.7 mg/dL
  K: 4.5 meq/L
  LDH: 62.8 IU/L
  Na: 141.2 meq/L
  PL: 134.8 mg/dL
  RALB: 3.8 g/dL
  TBIL: 0.03 mg/dL
  TC: 62 mg/dL
  TG: 182.2 mg/dL
  TP: 5.7 g/dL
  gamma-GTP: 1 IU/L
[5]
  TERMINAL_BW: 226.1 g
  APTT: 17.7 s
  Bas: 0%
  Eos: 1%
  Fbg: 212.2 mg/dL
  Hb: 13 g/dL
  Ht: 39.1%
  Lym: 76.2%
  MCH: 21.3 pg
  MCHC: 33.2%
  MCV: 64.1 fL
  Mono: 5.6%
  Neu: 17.2%
  PT: 12.1 s
  Plat: 129 x10_4/uL
  RBC: 610.6 x10_4/ul
  Ret: 7.7%
  WBC: 114.4 x10_2/uL
  LIVER: 11.2 g
  A/G: 2.2
  ALP: 1376 IU/L
  ALT: 37.2 IU/L
  AST: 67.4 IU/L
  BUN: 19.2 mg/dL
  CRE: 0.4 mg/dL
  Ca: 11.6 mg/dL
  Cl: 104.8 meq/L
  DBIL: 0.014 mg/dL
  GLC: 188.2 mg/dL
  IP: 7.5 mg/dL
  K: 4.5 meq/L
  LDH: 111.2 IU/L
  Na: 142.4 meq/L
  PL: 152.4 mg/dL
  RALB: 3.8 g/dL
  TBIL: 0.032 mg/dL
  TC: 85.6 mg/dL
  TG: 78 mg/dL
  TP: 5.6 g/dL
  gamma-GTP: 0.4 IU/L
[6]
  TERMINAL_BW: 258.8 g
  APTT: 15.9 s
  Bas: 0%
  Eos: 0.8%
  Fbg: 227.4 mg/dL
  Hb: 13.4 g/dL
  Ht: 40.6%
  Lym: 68.2%
  MCH: 21.5 pg
  MCHC: 33%
  MCV: 65.3 fL
  Mono: 9.6%
  Neu: 21.6%
  PT: 11.6 s
  Plat: 117.4 x10_4/uL
  RBC: 622.8 x10_4/ul
  Ret: 5.7%
  WBC: 93.6 x10_2/uL
  LIVER: 13.1 g
  A/G: 2.1
  ALP: 1367.8 IU/L
  ALT: 39.6 IU/L
  AST: 65 IU/L
  BUN: 18.2 mg/dL
  CRE: 0.4 mg/dL
  Ca: 11.7 mg/dL
  Cl: 103.2 meq/L
  DBIL: 0.018 mg/dL
  GLC: 202.2 mg/dL
  IP: 7.4 mg/dL
  K: 4.4 meq/L
  LDH: 110.6 IU/L
  Na: 140 meq/L
  PL: 150.8 mg/dL
  RALB: 3.8 g/dL
  TBIL: 0.04 mg/dL
  TC: 79.4 mg/dL
  TG: 106.6 mg/dL
  TP: 5.6 g/dL
  gamma-GTP: 0.6 IU/L
[7]
  TERMINAL_BW: 318.2 g
  APTT: 15.7 s
  Bas: 0%
  Eos: 1%
  Fbg: 238.2 mg/dL
  Hb: 13.9 g/dL
  Ht: 41.7%
  Lym: 75.8%
  MCH: 20.6 pg
  MCHC: 33.2%
  MCV: 62.2 fL
  Mono: 5.2%
  Neu: 18.4%
  PT: 11.4 s
  Plat: 130.8 x10_4/uL
  RBC: 671.4 x10_4/ul
  Ret: 3.8%
  WBC: 138.2 x10_2/uL
  LIVER: 15.3 g
  A/G: 2.1
  ALP: 1397.6 IU/L
  ALT: 36.6 IU/L
  AST: 68 IU/L
  BUN: 19.4 mg/dL
  CRE: 0.4 mg/dL
  Ca: 11.8 mg/dL
  Cl: 105 meq/L
  DBIL: 0.012 mg/dL
  GLC: 188.6 mg/dL
  IP: 6.9 mg/dL
  K: 4.6 meq/L
  LDH: 142.4 IU/L
  Na: 139.2 meq/L
  PL: 164.2 mg/dL
  RALB: 3.9 g/dL
  TBIL: 0.03 mg/dL
  TC: 85.4 mg/dL
  TG: 152.4 mg/dL
  TP: 5.8 g/dL
  gamma-GTP: 1 IU/L
[8]
  TERMINAL_BW: 393.8 g
  APTT: 19 s
  Bas: 0%
  Eos: 1.2%
  Fbg: 204.2 mg/dL
  Hb: 14.7 g/dL
  Ht: 44.3%
  Lym: 74.6%
  MCH: 19.3 pg
  MCHC: 33.2%
  MCV: 58.2 fL
  Mono: 5%
  Neu: 19.6%
  PT: 12.6 s
  Plat: 117.6 x10_4/uL
  RBC: 761.4 x10_4/ul
  Ret: 2.1%
  WBC: 107.4 x10_2/uL
  LIVER: 16.3 g
  A/G: 1.8
  ALP: 1025.4 IU/L
  ALT: 33 IU/L
  AST: 64.2 IU/L
  BUN: 18 mg/dL
  CRE: 0.4 mg/dL
  Ca: 10.7 mg/dL
  Cl: 105.8 meq/L
  DBIL: 0.01 mg/dL
  GLC: 175.2 mg/dL
  IP: 6.2 mg/dL
  K: 4.5 meq/L
  LDH: 101.8 IU/L
  Na: 141.2 meq/L
  PL: 134.8 mg/dL
  RALB: 3.8 g/dL
  TBIL: 0.032 mg/dL
  TC: 65.6 mg/dL
  TG: 143 mg/dL
  TP: 6 g/dL
  gamma-GTP: 1 IU/L
